Consider one compound from article PMC4578888, “The Validation of Nematode-Specific Acetylcholine-Gated Chloride Channels as Potential Anthelmintic Drug Targets” (PLoS ONE, 2015).

SMILES strings stand for the structures.

The assay concerns the target T1, AVR-15 (glutamate-gated chloride channel subunit) (Caenorhabditis elegans, UniProt O17548).
T1 construct: homomeric AVR-15, untagged and with a fluorescent protein tag in the intracellular loop, expressed in Xenopus laevis oocytes
T1 sequence (O17548 21-478): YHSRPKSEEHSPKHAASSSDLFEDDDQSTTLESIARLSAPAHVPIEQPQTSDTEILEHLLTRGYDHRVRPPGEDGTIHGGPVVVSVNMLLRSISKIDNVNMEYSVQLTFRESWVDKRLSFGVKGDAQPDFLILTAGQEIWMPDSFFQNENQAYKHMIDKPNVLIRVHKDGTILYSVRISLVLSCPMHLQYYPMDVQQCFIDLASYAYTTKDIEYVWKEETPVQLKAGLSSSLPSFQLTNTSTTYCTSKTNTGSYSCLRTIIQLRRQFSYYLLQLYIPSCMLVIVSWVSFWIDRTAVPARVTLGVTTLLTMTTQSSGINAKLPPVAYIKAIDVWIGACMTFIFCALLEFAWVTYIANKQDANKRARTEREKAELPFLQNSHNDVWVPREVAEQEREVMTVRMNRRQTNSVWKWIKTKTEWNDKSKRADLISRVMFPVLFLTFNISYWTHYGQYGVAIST
The assay is described as follows: two-electrode voltage clamp in Xenopus oocytes, dose–response curve. The assay is classed as cell-based. In general terms: In two-electrode clamp one electrode senses voltage and the other passes current.

Regarding `N[C@@H](CCC(=O)O)C(=O)O` [glutamate], the “two-electrode voltage clamp in Xenopus oocytes, dose-response curve” value was “Dose–response curve with the normalized maximal response on the y-axis plotted against the glutamate concentration”.
